# Like-named read-outs stand apart in the source and are kept apart here.
# What was measured:
# [1] = system: PSA; assay: Screening SSIA by homogeneous PSA immunoassay; assay type: biochemical
# Procedure: This example presents one method used for testing of candidate compounds for functionality as SSIA in assays of the present disclosure. Testing was conducted in a model screening immunoassay of the protein PSA. Mouse anti-PSA tests were run using a 96-well microtiter plate format. […] The plate was incubated at 37° C. for 10 minutes. A 5 μL aliquot of the test compound (various concentrations) was added to each well. Chemiluminescence was triggered by the addition of 100 μL of a solution of trigger solution A. The chemiluminescent flash was integrated for 5 seconds after the addition of the trigger solution using a Luminoskan Asent® plate luminometer, (Thermo Fischer Scientific, Inc., Waltham, Mass.).
# It is desirable that the improvement factor be at least 2 (S5/S0≧ about 20-30) and more desirable that improvement factor be at least 5 (S5/S0≧ about 50), yet more desirable that S5/S0 be ≧100 in the present screen.
# [2] = target: T1, biotinylated HRP (Armoracia rusticana, UniProt P00433); assay: Model system for selection of SSIA (M280 btn-BSA-AK1-streptavidin particles + Btn-HRP:HRP); assay type: biochemical; settings: for S/S0: Btn-HRP 0 ng/mL vs 0; for S/S0 / S1/S0 / S2/S0 / S3/S0 / S4/S0 / effect in the model system / utility as SSIA: SSIA 100 μM; for B-HRP0 light intensity: Btn-HRP 0 ng/mL; for B-HRP0 light intensity / B-HRP1 light intensity / B-HRP10 light intensity / B-HRP100 light intensity / B-HRP250 light intensity: total HRP 500 ng/mL, SSIA final 100 μM; for S1/S0: Btn-HRP 1 ng/mL vs 0; for B-HRP1 light intensity: Btn-HRP 1 ng/mL; for S2/S0: Btn-HRP 10 ng/mL vs 0; for B-HRP10 light intensity: Btn-HRP 10 ng/mL; for S3/S0: Btn-HRP 100 ng/mL vs 0; for B-HRP100 light intensity: Btn-HRP 100 ng/mL; for S4/S0: Btn-HRP 250 ng/mL vs 0; for B-HRP250 light intensity: Btn-HRP 250 ng/mL; for effect in the model system / utility as SSIA: conclusion in words
# T1 construct: purchased Roche Diagnostics, Indianapolis, Ind., USA
# T1 sequence (P00433 31-338 limits assumed): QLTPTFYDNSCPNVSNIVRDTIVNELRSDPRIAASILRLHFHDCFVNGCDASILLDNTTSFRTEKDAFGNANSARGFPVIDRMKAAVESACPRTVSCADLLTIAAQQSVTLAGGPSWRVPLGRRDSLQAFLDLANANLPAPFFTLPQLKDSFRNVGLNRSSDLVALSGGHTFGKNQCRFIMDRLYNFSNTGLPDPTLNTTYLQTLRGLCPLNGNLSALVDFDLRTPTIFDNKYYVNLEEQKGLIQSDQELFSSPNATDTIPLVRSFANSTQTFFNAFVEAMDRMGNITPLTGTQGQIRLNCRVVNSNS
# Procedure: The model system uses a microparticle conjugated to BSA (bovine serum albumin) labeled with a […] and acridan ketenedithioacetal chemiluminescent label (AK1) as the chemiluminescent-labeled sbp, and biotinylated HRP as the activator-labeled specific binding pair. In the model system, varying amounts of Btn-HRP is added to the chemiluminescent-labeled specific binding pair at 0, 1, 10, 100 and 250 ng/mL. Additional unlabeled HRP is added to reach a total HRP of concentration of 500 ng/mL in each reaction mixture. The unlabeled HRP in combination with the activator-labeled sbp was provided to the chemiluminescent-labeled sbp microparticles to emulate sample. A compound for assessment as an SSIA was also added. This reaction mixture of the model system is then triggered by addition of trigger solution in a manner of assays of the present disclosure.
# To prepare the chemiluminescent-labeled sbp on microparticles, Bovine Serum Albumin (BSA) was biotinylated with 4× molar excess of biotin-LC-sulfoNHS (Pierce Biotechnology Inc., Rockford, Ill., USA). Unbound reactants were removed via desalting or dialysis. The biotin-BSA was then reacted with a 5× molar excess of acridan ketenedithioacetal AK1 in 20 mM sodium phosphate pH 7.2: DMSO 75:25, v/v) followed by desalting in the same buffer. The dual labeled (biotin and AK1) BSA was then coupled with tosyl activated M-280 microparticles (Invitrogen Corporation, Carlsbad, Calif., USA) in a 0.1 M borate buffer pH 9.5 at a concentration of ca. 20 μg labeled BSA per mg of microparticles for 16-24 h at 40° C. After coupling the microparticles were stripped for 1 h at 40° C. with 0.2 M TRIS base, 2% SDS, pH ˜11. The stripping process was repeated one additional time. Microparticles were then suspended in a 0.1% BSA/TRIS buffered saline (BSA/TBS) buffer and streptavidin (SA) was added at approximately 15 μg SA per mg microparticles. Streptavidin was mixed with the microparticles for 45-50 min at room temperature. The microparticles were then washed three times and suspended in the same BSA/TBS.
# HRP, (Roche Diagnostics, Indianapolis, Ind., USA) was biotinylated with 4× molar excess of biotin-LC-sulfoNHS (Pierce Biotechnology Inc., Rockford, Ill., USA). Unbound reactants were removed via desalting or dialysis.
# Each SSIA compound for assessment was dissolved in Buffer II at a concentration at least 10× of final concentration of the reaction mixture (after the addition of the trigger solution)
# Paramagnetic particles (PMP): (M280)-(btn-BSA-AK)-(Streptavidin);
# Sample Emulator: B-HRP:HRP; 500 ng/mL total with titration of B-HRP:HRP at Total HRP concentration of 500 ng/mL, with Btn-HRP variations: 0, 1, 10, 100 and 250 ng/mL.
# SSIA: According to tables below in BUFFER II targeted to give a final concentration of 100 μM.
# Trigger solution A is defined above.
# 5 μl of 1 mg/ml of dual-labeled (biotin and AK1) BSA M280 particles were mixed with 45 μl of working concentration SSIA in Buffer II. The assay volume brought to […] by adding 15 μl of Buffer II. 15 μl of sample containing Btn-HRP:HRP at different ratios (The amount of biotinylated-HRP varied from 0, 1, 10, 100 and 250 ng/mL) was added. The reaction mixture was incubated for 30 min at 37° C., then 100 μL of trigger solution was added and the light intensity recorded. Total volume of reaction mixture, including trigger solution was […] with a final concentration of 100 μM of SSIA.
# [3] = system: GM-CSF
# Procedure: The term “GM-CSF” refers to granulocyte macrophage […], a protein necessary for the survival, proliferation and differentiation of hematopoietic progenitor cells, having human gene map locus 5q31.1. A variety of antibodies to GM-CSF are commercially available.
# Heterogeneous phase assays directed to GM-CSF were conducted using a LodeStars PMP labeled with AK4 and biotin/streptavidin (AK-PMP-SA) as described in Example 3, an antibody-biotin conjugate and an antibody-HRP conjugate binding to GM-CSF. The antibody-HRP conjugate, (antiGM-CSF-HRP) was purchased from Antigenix.
# The antibody-biotin (antiGM-CSF-biotin) conjugate was synthesized by adding a 25-fold molar excess (9.28 μg) of sulfo NHS-biotin (Pierce), dissolved in DMF (1 mg/mL), to 0.1 mg of antibody (Antigenix) in 0.1 mL of 0.1 M sodium borate pH 8.25. After a 60 min incubation at ambient temperature, the reaction was left to incubate overnight at 4° C. The biotinylated antibody was purified over a Sephadex G-25 column (GE Healthcare), equilibrated in PBS, pH 7.4, following the manufacturers instructions.
# In order to conduct the heterogeneous assay, 30 μL of an antiGM-CSF-Biotin conjugate solution (0.75 μg/mL, 22.5 ng), 30 μL of calibrator solution having GM-CSF in the range 0-30,000 pg/mL, 30 μL of antiGM-CSF-HRP conjugate (2.25 μg/mL, 67 ng), and 30 μL of AK-streptavidin magnetic particle solution (10 μg of particles) were pipetted into the wells of a white microtiter plate. The plate was incubated for 60 minutes at room temperature. 5 μL of a 2-aminophenol solution (11 mM, 55 nmoles) was added as SSIA. The plate was placed into an injection plate luminometer. 100 μL of trigger solution A was added by the luminometer and the chemiluminescent signal was read for 5 seconds.
# [4] = 2-aminophenol as SSIA, GM-CSF 0 pg/mL
# [5] = 2-aminophenol as SSIA, GM-CSF 1 pg/mL
# [6] = 2-aminophenol as SSIA, GM-CSF 3 pg/mL
# [7] = 2-aminophenol as SSIA, GM-CSF 5 pg/mL
# [8] = 2-aminophenol as SSIA, GM-CSF 10 pg/mL
# [9] = 2-aminophenol as SSIA, GM-CSF 100 pg/mL
# [10] = 2-aminophenol as SSIA, GM-CSF 1000 pg/mL
# [11] = 2-aminophenol as SSIA, GM-CSF 10000 pg/mL
# [12] = PSA 129 ng/mL (S5) vs zero, test compound final conc. 122 uM
# [13] = PSA 129 ng/mL (S5) vs zero, test compound final conc. 0.122 mM
smiles,measurement,setting,value
Cn1ccnc1S,S5/S0,"[1]; PSA 129 ng/mL (S5) vs zero, test compound final conc. 36.7 mM",102
Nc1ncc[nH]1,S5/S0,"[1]; PSA 129 ng/mL (S5) vs zero, test compound final conc. 24.4 mM",14
Nc1ccc2[nH]ncc2c1,S5/S0,"[1]; PSA 129 ng/mL (S5) vs zero, test compound final conc. 12.2 mM",10
Nc1ccccc1O [2-aminophenol],S/S0,[2],1
same,B-HRP0 light intensity,[2],65
same,S1/S0,[2],5.5
same,B-HRP1 light intensity,[2],356
same,S2/S0,[2],132.8
same,B-HRP10 light intensity,[2],"8,632"
same,S3/S0,[2],32195.4
same,B-HRP100 light intensity,[2],"2,092,703"
same,S4/S0,[2],61672.1
same,B-HRP250 light intensity,[2],"4,008,689"
same,effect in the model system / utility as SSIA,[2],demonstrating utility as SSIA
same,Mean RLU,"[3]; 2-aminophenol 55 nmoles as SSIA, GM-CSF 30000 pg/mL",2180 RLU
same,Mean RLU,[3]; [4],0.7805 RLU
same,S/S0,[3]; [4],1.000
same,Mean RLU,[3]; [5],0.8045 RLU
same,S/S0,[3]; [5],1.030
same,Mean RLU,[3]; [6],0.8865 RLU
same,S/S0,[3]; [6],1.135
same,Mean RLU,[3]; [7],0.9205 RLU
same,S/S0,[3]; [7],1.179
same,Mean RLU,[3]; [8],1.284 RLU
same,S/S0,[3]; [8],1.645
same,Mean RLU,[3]; [9],5.2805 RLU
same,S/S0,[3]; [9],6.765
same,Mean RLU,[3]; [10],47.89 RLU
same,S/S0,[3]; [10],61.358
same,Mean RLU,[3]; [11],580.6 RLU
same,S/S0,[3]; [11],743.882
same,S/S0,"[3]; 2-aminophenol as SSIA, GM-CSF 30000 pg/mL",2793.081
O[C@@H](CS)[C@@H](O)CS [DTT],S5/S0,"[1]; PSA 129 ng/mL (S5) vs zero, test compound final conc. 72 uM",20
OCCO [Ethylene glycol],S5/S0,[1],14
N[C@@H](CCC(=O)N[C@@H](CS)C(=O)NCC(=O)O)C(=O)O [Glutathione],S/S0,[2],1
same,B-HRP0 light intensity,[2],"26,977"
same,S1/S0,[2],2.1
same,B-HRP1 light intensity,[2],"55,719"
same,S2/S0,[2],92
same,B-HRP10 light intensity,[2],"2,480,764"
same,S3/S0,[2],323.7
same,B-HRP100 light intensity,[2],"8,733,068"
same,S4/S0,[2],369.4
same,B-HRP250 light intensity,[2],"9,965,235"
same,effect in the model system / utility as SSIA,[2],no effect
same,S5/S0,[1]; [12],77
N[C@@H](CS)C(=O)O [L-Cysteine],S5/S0,[1]; [12],22
NN [NH2NH2],S5/S0,"[1]; PSA 129 ng/mL (S5) vs zero, test compound final conc. 244 uM",15
O=S([O-])[O-].[Na+].[Na+] [Na2SO3],S5/S0,"[1]; PSA 129 ng/mL (S5) vs zero, test compound final conc. 15 uM",59
[N-]=[N+]=[N-].[Na+] [NaN3],S5/S0,"[1]; PSA 129 ng/mL (S5) vs zero, test compound final conc. 34 uM",19
Cc1cc(-c2cc(C)c(N)c(C)c2)cc(C)c1N [TMB],S5/S0,"[1]; PSA 129 ng/mL (S5) vs zero, test compound final conc. 61 uM",20
"O=C1O[C@H]([C@@H](O)CO)C([O-])=C1O.[Na+] [ascorbate sodium salt (ascorbate anion), ascorbate sodium salt]",S5/S0,[1]; [13],495
Nc1ccccc1O [drawing 47],S5/S0,[1]; [13],649
O=C1O[C@H]([C@@H](O)CO)C(O)=C1O [drawing 64],S5/S0,[1]; [12],10.3
O=C1O[C@H]([C@@H](O)CO)C(O)=C1O [drawing 72],S5/S0,[1]; [13],423
Oc1ccc(O)c(Cl)c1 [drawing 75],S5/S0,"[1]; PSA 129 ng/mL (S5) vs zero, test compound final conc. 0.111 mM",229
Oc1ccc(Cl)cc1O [drawing 77],S5/S0,"[1]; PSA 129 ng/mL (S5) vs zero, test compound final conc. 0.244 mM",409
Nc1ccc(C(=O)O)cc1O [drawing 79],S5/S0,[1]; [13],153

# — patent US20100273189A1, “NON SEPARATION ASSAYS WITH SELECTIVE SIGNAL INHIBITORS” (BECKMAN COULTER, INC., priority 2009, published 2010)
